Among the data in ChEMBL document CHEMBL6096628, “Discovery of a Highly Potent and Selective BRD9 PROTAC Degrader Based on E3 Binder Investigation for the Treatment of Hematological Tumors” (J Med Chem, 2024) are Activity values, retold here.

Calls of active or inactive are those of the source. The rule behind the calls is not given here.

Test [1] deals with MV4-11. Put plainly: Downregulation of TTK protein expression in human MV4-11 cells by proteomic analysis. The format is functional, cell-based.
For test [2], the system named is MV4-11. Put plainly: Induction of apoptosis in human MV4-11 cells assessed as early apoptotic cells at 0.01 nM incubated for 48 hrs by Annexin V-FITC/PI staining based flow cytometric analysis (reference value: 4.22 %). The class given is functional. In general terms: A flow cytometer gives signals particle by particle.

With `COc1cc(-c2cn(C)c(=O)c3ccccc23)cc(OC)c1CN1CCC(CN2CCC(c3ccc4c5c(cccc35)C(=O)N4C3CCC(=O)NC3=O)CC2)CC1` (configuration not stated), the result in test [1] was Active. Moreover, the Activity in test [2] came to 6.35%.
